These are literature values, as cited in patent publication US20160300010A1, “METHOD AND SYSTEM FOR PREDICTING SELECTIVE CANCER DRUG TARGETS” (RAMOT AT TEL-AVIV UNIVERSITY LTD., priority 2011, published 2016).

The series concerns human cancer cells. Conditions: previously shown.

Turning to `NC(Cn1ccc(=O)c(O)c1)C(=O)O` (stereo not shown) [Mimosine], the “effect on proliferation of human cancer cells” value was “inhibit proliferation of human cancer cells”.
